These results are taken from publication PMC8647499, “Preclinical evaluation of strasseriolides A–D, potent antiplasmodial macrolides isolated from Strasseria geniculata CF-247,251” (Malaria Journal, 2021).

The test system of data set [1] is transgenic P. berghei line 676m1cl1 (PbGFP-Luccon), ANKA strain. Briefly: In vivo efficacy in P. berghei infected mice (luciferase activity). Also on record: species or system Plasmodium berghei in Swiss Webster female mice. As to conditions: for Parasitaemia (Luminescence arbitrary units), Average ± SD: 4 days from 48 h post-infection; for in vivo activity (in words): strasseriolide D 22 mg/kg i.p. (p < 0.01 vs. vehicle), strasseriolide C 50 mg/kg i.p. (not statistically significant); for parasitaemia level lower compared to controls treated with vehicle: strasseriolide D 22 mg/kg i.p., strasseriolide C 50 mg/kg i.p., 4 days. How it is done:
In vivo efficacy experiments were performed at the Anti-infectives Screening Core Services facility of the New York University School of Medicine. The transgenic P. berghei line 676m1cl1 parasite (PbGFP-Luccon) expressing the fusion GFP (mutant 3) and firefly luciferase (LucIAV) proteins generated in the reference clone of ANKA strain cl15cy1 was used. Swiss Webster female mice were infected with transgenic P. berghei line 676m1cl1 (PbGFP-Luccon) ANKA-infected 10³ red blood cells. Treatment was then started 48 h post-parasite infection by i.p. dosage of 22 mg/kg of strasseriolide D and 50 mg/kg of strasseriolide C. Vehicle only (PBS 2% methylcellulose, 0.5% Tween 80) and 20 mg/kg chloroquine were used as negative and positive controls. The infected mice were treated for four days, after which luciferase activity of the parasites was quantified 5 to 10 min after i.p. injection of 150 mg/kg D-Luciferin Potassium-salt (Goldbio) dissolved in PBS using an IVIS® Lumina II imager on the fifth day.
The Genedata Screener online application (Genedata AG, Basel, Switzerland) was used to compute IC50 values. The Smart Fit strategy with Hill model was selected as the choice for curve fitting. Where applicable, data are presented as mean ± standard deviation (SD). In Fig. 3, the significant differences between the vehicle controls and test compounds were calculated by the Student’s t test.

A short description of data set [2]: Solubility in the formulation vehicle. The data set is classed as physicochemical. Particulars: at 25 mg/Kg dosage, about 5.53 mM in 200 µL vehicle; preliminary unpublished data.

Values joined by “and” are separate entries in the source; they are usually repeats but may differ in a detail not shown here. Equal values may be shown once.

On to `C/C1=C\[C@H](C)C(=O)C[C@@H](O)/C(C)=C/[C@H](C)C[C@@H](C)CC[C@@H]([C@@H](C)C(=O)O)OC(=O)[C@@H](C)C1` [Strasseriolide C, strasseriolide C], for which the “Parasitaemia (Luminescence arbitrary units), Average ± SD” value in data set [1] (Table S7/Fig. 3A experiment: strasseriolide C 50 mg/kg i.p., chloroquine 20 mg/kg, read day 5, four replicates) is 3.66 × 10^6 ± 2.23 × 10^6 Luminescence arbitrary units. Also, in data set [1], the “in vivo activity (in words)” value is “moderate in vivo activity” and the “parasitaemia level lower compared to controls treated with vehicle” value is listed as 30%.

In the case of `C/C1=C\[C@H](C)[C@@H](O)C[C@@H](O)/C(C)=C/[C@H](C)C[C@@H](C)CC[C@@H]([C@@H](C)C(=O)O)OC(=O)[C@@H](C)C1` [Strasseriolide D, strasseriolide D], the “soluble in the formulation vehicle” value in data set [2] amounted to 35%. In data set [1] (Table S8/Fig. 3B experiment: strasseriolide D 22 mg/kg i.p., chloroquine 20 mg/kg, read day 5, five replicates), the “Parasitaemia (Luminescence arbitrary units), Average ± SD” value is on record as 1.25 × 10^5 ± 1.04 × 10^5 Luminescence arbitrary units. In data set [1] (Table S8 experiment: strasseriolide D 22 mg/kg i.p., chloroquine 20 mg/kg, individual mice), the “Parasitaemia (Luminescence arbitrary units), single replicates” value was 2.56 × 10^4 Luminescence arbitrary units and 6.93 × 10^3 Luminescence arbitrary units. For the same compound, in data set [1], the “in vivo activity (in words)” value was “significantly lowered parasitaemia in vivo” and the “parasitaemia level lower compared to controls treated with vehicle” value was 70%.
